Laboratory results from ChEMBL document CHEMBL1150443, “Synthesis and ion-binding properties of an immobilized bis-cysteine peptide” (Bioorg Med Chem Lett, 1992).
The source made the active and inactive calls. No cut-off for these calls is given here.

Columns and labels:
[1] = Binding constant of the ion pair ( lithium picrate salt) to the peptide-matrix was calculated from the spectrophotometric determination of the free Li+ picrate salt after equilibration with the immobilized peptide in trifluoroethanol; NA=No affinity
[2] = Binding constant of the ion pair ( sodium picrate salt) to the peptide-matrix was calculated from the spectrophotometric determination of the free Na+ picrate salt after equilibration with the immobilized peptide in trifluoroethanol
[3] = Binding constant of the ion pair ( potassium picrate salt) to the peptide-matrix was calculated from the spectrophotometric determination of the free K+ picrate salt after equilibration with the immobilized peptide in trifluoroethanol; NA=No affinity
[4] = Binding constant of the ion pair ( lithium picrate salt) to the peptide-matrix was calculated from the spectrophotometric determination of the free Na+ picrate salt after equilibration with the immobilized peptide in trifluoroethanol
[5] = Binding constant of the ion pair ( lithium picrate salt) to the peptide-matrix was calculated from the spectrophotometric determination of the free Li+ picrate salt after equilibration with the immobilized peptide in trifluoroethanol
[6] = Binding constant of the ion pair ( lithium picrate salt) to the peptide-matrix was calculated from the spectrophotometric determination of the free […] picrate salt after equilibration with the immobilized peptide in trifluoroethanol; NA=No affinity

Row | Activity [1] | KNa [2] [M⁻¹] | Activity [3] | Log K [4] | Log K [5] | Activity [6] | SMILES
1 | inactive | 5200 | inactive | – | – | – | CC(=O)N[C@@H]1CSSC[C@@H](NC(C)=O)C(=O)N2CCC[C@@H]2C(=O)N[C@H](C(C)C)C(=O)N[C@H](C(=O)O)CSSC[C@@H](C(N)=O)NC(=O)[C@@H](C(C)C)NC(=O)[C@H]2CCCN2C1=O
2 | – | – | – | 2.11 | 2.6 | inactive | CC(=O)N[C@@H]1CSSC[C@@H](NC(C)=O)C(=O)N2CCC[C@@H]2C(=O)N[C@H](C(C)C)C(=O)N[C@H](C(N)=O)CSSC[C@@H](C(N)=O)NC(=O)[C@@H](C(C)C)NC(=O)[C@H]2CCCN2C1=O
